Measurements from ChEMBL document CHEMBL1129848, “Synthesis and evaluation of imidazolidinones as nonpeptide HIV-protease inhibitors” (Bioorg Med Chem Lett, 1997).

Columns and labels:
[1] = target: T1, Human immunodeficiency virus type 1 protease (Human immunodeficiency virus 1, UniProt Q72874); experiment: Compound was tested for the inhibitory activity against HIV-protease
[2] = target: T1, Human immunodeficiency virus type 1 protease; experiment: Inhibition of HIV-protease

Structure (SMILES) | Ki [1] [µM] | Ki [2] [nM]
O=C1N(Cc2cccc(CO)c2)[C@H](Cc2ccccc2)[C@@H](Cc2ccccc2)N1Cc1cccc(CO)c1 | 15.5 | 
O=C1N(CC2CC2)[C@H]([C@@H](F)Cc2ccccc2)[C@@H]([C@@H](F)Cc2ccccc2)N1CC1CC1 |  | 980
O=C1N(Cc2cccc(CO)c2)[C@H](CCc2ccccc2)[C@@H](CCc2ccccc2)N1Cc1cccc(CO)c1 |  | 55
O=C1N(Cc2cccc(CO)c2)[C@H](Cc2ccccc2)CC[C@@H](Cc2ccccc2)N1Cc1cccc(CO)c1 |  | 170
O=C1N(Cc2cccc(O)c2)[C@H]([C@@H](F)Cc2ccccc2)[C@@H]([C@@H](F)Cc2ccccc2)N1Cc1cccc(O)c1 |  | 560
O=C1N(Cc2ccc3ccccc3c2)[C@H]([C@@H](F)Cc2ccccc2)[C@@H]([C@@H](F)Cc2ccccc2)N1Cc1ccc2ccccc2c1 |  | 1400
O=C1N(Cc2cccc(CO)c2)[C@H](CCc2ccccc2)C[C@@H](Cc2ccccc2)N1Cc1cccc(CO)c1 |  | 99
O=C(Oc1cccc(CN2C(=O)N(Cc3cccc(OC(=O)c4ccccc4)c3)[C@H]([C@@H](F)Cc3ccccc3)[C@H]2[C@@H](F)Cc2ccccc2)c1)c1ccccc1 |  | 425
COC(=O)c1cccc(CN2C(=O)N(Cc3cccc(C(=O)OC)c3)[C@H](CCc3ccccc3)[C@H]2[C@@H](Br)Cc2ccccc2)c1 |  | 920
N=C(NO)c1cccc(CN2C(=O)N(Cc3cccc(C(=N)NO)c3)[C@H](CCc3ccccc3)[C@H]2CCc2ccccc2)c1 |  | 17
COC(=O)c1cccc(CN2C(=O)N(Cc3cccc(C(=O)OC)c3)[C@H](CCc3ccccc3)[C@H]2CCc2ccccc2)c1 |  | 470
O=C1N(Cc2cccc(CO)c2)[C@H]([C@@H](O)Cc2ccccc2)[C@@H](CCc2ccccc2)N1Cc1cccc(CO)c1 |  | 23
COC(=O)c1cccc(CN2C(=O)N(Cc3cccc(C(=O)OC)c3)[C@H](CCc3ccccc3)[C@H]2[C@@H](O)Cc2ccccc2)c1 |  | 100
C=CCN1C(=O)N(CC=C)[C@H]([C@@H](F)Cc2ccccc2)[C@H]1[C@@H](F)Cc1ccccc1 |  | 2500
